Results taken from ChEMBL document CHEMBL1201862, “PubChem BioAssay data set” (2004).
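1) Cells in 96-well plates. 2) Compound, 48 h, 5 concentrations. 3) Linear interpolation between surrounding doses. 4) Unreached endpoint = highest concentration. Here, GI50 denotes the concentration required for 50% inhibition of growth.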 The source made the active and inactive calls. Rule as the data show it: active = GI50 up to about 1.1 µM and inactive = higher.

Legend:
Assay in all cases: DTP human tumour cell line panel, 48 h
DU-145 = system: DU-145
HCT-15 = system: HCT-15
ACHN = system: ACHN
OVCAR-8 = system: OVCAR-8
SF-295 = system: SF-295
HCT-116 = system: HCT-116
KM12 = system: KM12
CCRF-CEM = system: CCRF-CEM
OVCAR-5 = system: OVCAR-5
T47D = system: T47D
Hs-578T = system: Hs-578T
SK-MEL-2 = system: SK-MEL-2
A549 = system: A549
MDA-MB-231 = system: MDA-MB-231
MOLT-4 = system: MOLT-4
OVCAR-4 = system: OVCAR-4
HCC 2998 = system: HCC 2998
OVCAR-3 = system: OVCAR-3
SNB-75 = system: SNB-75
RXF 393 = system: RXF 393

SMILES	GI50 (DU-145)	GI50 (HCT-15)	GI50 (ACHN)	GI50 (OVCAR-8)	GI50 (SF-295)	GI50 (HCT-116)	GI50 (KM12)	GI50 (CCRF-CEM)	GI50 (OVCAR-5)	GI50 (T47D)	GI50 (Hs-578T)	GI50 (SK-MEL-2)	GI50 (A549)	GI50 (MDA-MB-231)	GI50 (MOLT-4)	GI50 (OVCAR-4)	GI50 (HCC 2998)	GI50 (OVCAR-3)	GI50 (SNB-75)	GI50 (RXF 393)
CSc1ccccc1P(c1ccccc1SC)c1ccccc1SC	> 100 µM (inactive)	> 100 µM	> 100 µM (inactive)	> 100 µM (inactive)	> 100 µM (inactive)	> 100 µM (inactive)	> 100 µM (inactive)	> 100 µM (inactive)	> 100 µM (inactive)	2.62 µM (inactive)	98.2 µM (inactive)	> 100 µM (inactive)	> 100 µM (inactive)	> 100 µM (inactive)	> 100 µM (inactive)	> 100 µM (inactive)	–	–	–	–
COc1c(OC)c(OC)c2c(c1OC)c(=O)c1ccccc1n2C [MELICOPICINE]	> 100 µM (inactive)	72.3 µM	> 100 µM (inactive)	> 100 µM (inactive)	> 100 µM (inactive)	> 100 µM (inactive)	12.9 µM (inactive)	> 10 µM (inactive)	> 100 µM (inactive)	54.3 µM (inactive)	> 100 µM (inactive)	> 100 µM (inactive)	> 100 µM (inactive)	> 100 µM (inactive)	51.1 µM (inactive)	65.6 µM (inactive)	> 100 µM (inactive)	> 100 µM (inactive)	> 100 µM (inactive)	–
CCOC(=O)C(=O)Nc1c(CC)cccc1C(C)CC (stereo not given)	–	> 100 µM	> 100 µM (inactive)	> 100 µM (inactive)	> 100 µM (inactive)	> 100 µM (inactive)	> 100 µM (inactive)	> 100 µM (inactive)	> 100 µM (inactive)	–	–	> 100 µM (inactive)	> 100 µM (inactive)	–	> 100 µM (inactive)	> 100 µM (inactive)	> 100 µM (inactive)	> 100 µM (inactive)	> 100 µM (inactive)	> 100 µM (inactive)
COC1CCC2C(=O)CCCC2O1 (stereo not given)	–	> 100 µM	> 100 µM (inactive)	> 100 µM (inactive)	> 100 µM (inactive)	> 100 µM (inactive)	> 100 µM (inactive)	–	> 100 µM (inactive)	–	–	> 100 µM (inactive)	> 100 µM (inactive)	–	> 100 µM (inactive)	> 100 µM (inactive)	> 100 µM (inactive)	> 100 µM (inactive)	> 100 µM (inactive)	> 100 µM (inactive)
O=S1(=O)C[C@H](NCc2ccccc2)[C@H](NCc2ccccc2)C1	> 100 µM (inactive)	–	> 100 µM (inactive)	96.2 µM (inactive)	> 100 µM (inactive)	> 100 µM (inactive)	> 100 µM (inactive)	29.4 µM (inactive)	> 100 µM (inactive)	30.8 µM (inactive)	73.3 µM (inactive)	> 100 µM (inactive)	> 100 µM (inactive)	> 100 µM (inactive)	23.8 µM (inactive)	> 100 µM (inactive)	> 100 µM (inactive)	> 100 µM (inactive)	> 100 µM (inactive)	> 100 µM (inactive)
COc1ccc(N[C@H](C[S+]([O-])c2ccc(C)cc2)C(F)(F)C(F)(F)F)cc1 (stereo not given in full)	> 100 µM (inactive)	> 100 µM	> 100 µM (inactive)	90.6 µM (inactive)	62.4 µM (inactive)	52.4 µM (inactive)	> 100 µM (inactive)	> 100 µM (inactive)	> 100 µM (inactive)	14.1 µM (inactive)	36.6 µM (inactive)	–	99.5 µM (inactive)	–	> 100 µM (inactive)	95.7 µM (inactive)	> 100 µM (inactive)	> 100 µM (inactive)	21 µM (inactive)	4.21 µM (inactive)
Nc1nnc(O)c2c1c(I)cn2C1OC(CO)C(O)C1O (stereo not given)	–	0.188 µM	0.592 µM (active)	0.105 µM (active)	1.43 µM (inactive)	0.232 µM (active)	0.393 µM (active)	0.129 µM (active)	0.689 µM (active)	–	–	0.0226 µM (active)	2.07 µM (inactive)	–	0.0474 µM (active)	1.3 µM (inactive)	0.208 µM (active)	0.0745 µM (active)	0.718 µM (active)	1.06 µM (active)
CCCCOc1ccc2c(c1)CC[C@@H]1[C@@H]2CC[C@]2(C)C(=O)N(CCCC)C(=O)C[C@@H]12	> 100 µM (inactive)	> 100 µM	–	> 100 µM (inactive)	> 100 µM (inactive)	> 100 µM (inactive)	> 100 µM (inactive)	44.6 µM (inactive)	> 100 µM (inactive)	> 100 µM (inactive)	> 100 µM (inactive)	> 100 µM (inactive)	–	> 100 µM (inactive)	30.4 µM (inactive)	–	> 100 µM (inactive)	> 100 µM (inactive)	> 100 µM (inactive)	–
